Reference: ChEMBL document CHEMBL4673253, “Discovery of EST73502, a Dual μ-Opioid Receptor Agonist and σ Receptor Antagonist Clinical Candidate for the Treatment of Pain” (J Med Chem, 2020)

What was measured:
[1] = molecular target: T1, Mu-type opioid receptor (Homo sapiens, UniProt P35372); assay: Displacement of [3H]-DAMGO from human MOR expressed in CHOK1 cell membranes incubated for 60 mins by liquid scintillation counting method; parameters: species or system CHO-K1, Cell membrane
[2] = molecular target: T2, Alpha-1A adrenergic receptor (Homo sapiens) (UniProt P35348); assay: Binding affinity to human alpha1A adrenoreceptor expressed in membranes assessed as inhibition of [3H]-prazosin binding incubated for 90 mins by scintillation counting method; parameters: concentration or dose not given beside the values; settings: Cell membrane
T2 sequence (whole entry): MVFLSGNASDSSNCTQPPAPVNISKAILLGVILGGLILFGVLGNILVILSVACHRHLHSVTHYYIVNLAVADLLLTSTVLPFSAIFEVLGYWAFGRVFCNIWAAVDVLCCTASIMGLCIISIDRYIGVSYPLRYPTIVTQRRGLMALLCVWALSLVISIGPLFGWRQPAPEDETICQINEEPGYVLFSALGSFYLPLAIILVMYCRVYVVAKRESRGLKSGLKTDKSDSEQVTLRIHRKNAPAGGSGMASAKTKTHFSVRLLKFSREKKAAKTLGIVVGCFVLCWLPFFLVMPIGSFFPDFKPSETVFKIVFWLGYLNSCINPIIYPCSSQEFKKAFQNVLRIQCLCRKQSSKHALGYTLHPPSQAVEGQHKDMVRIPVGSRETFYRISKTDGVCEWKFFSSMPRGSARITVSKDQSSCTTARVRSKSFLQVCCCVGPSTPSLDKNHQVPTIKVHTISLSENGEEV

[3] = molecular target: T1, Mu-type opioid receptor; assay: Displacement of [3H]-DAMGO from human MOR expressed in CHOK1 cell membranes at 10 uM incubated for 60 mins by liquid scintillation counting method; settings: CHO-K1, Cell membrane
[4] = molecular target: T1, Mu-type opioid receptor; assay: Agonist activity at human MOR expressed in CHOK1 cells assessed as […] of cAMP accumulation incubated for 45 mins by HTRF assay; assay type: functional, cell-based, CHO-K1
[5] = molecular target: T3, Sigma non-opioid intracellular receptor 1 (Homo sapiens, UniProt Q99720); assay: Displacement of 3H](+)-pentazocine from human sigma1 receptor expressed in HEK293 cell membranes incubated for 120 mins by liquid scintillation counting method; parameters: species or system Cell membrane
[6] = molecular target: T1, Mu-type opioid receptor; assay: Agonist activity at human MOR expressed in CHOK1 cells assessed as […] of cAMP accumulation incubated for 45 mins by HTRF assay relative to DAMGO; assay type: functional, cell-based; settings: CHO-K1, filed as agonist
[7] = molecular target: Voltage-gated inwardly rectifying potassium channel KCNH2 (Homo sapiens, UniProt Q12809)
Description: Inhibition of human ERG expressed in CHO cells at -80 mV holding potential by whole cell patch clamp assay

[8] = molecular target: hERG (KCNH2) (Homo sapiens, UniProt Q12809); assay: Inhibition of human ERG expressed in CHO cells at 10 uM at -80 mV holding potential by whole cell patch clamp assay; assay type: cell-based; settings: CHO cells expressing human ERG
[9] = molecular target: T1, Mu-type opioid receptor; assay: Displacement of [3H]-DAMGO from human MOR expressed in CHOK1 cell membranes at 1 uM incubated for 60 mins by liquid scintillation counting method; settings: CHO-K1, Cell membrane
[10] = molecular target: T1, Mu-type opioid receptor; assay: Agonist activity at human MOR expressed in CHOK1 cells assessed as […] of cAMP accumulation at 1 uM incubated for 45 mins by HTRF assay; assay type: functional, cell-based; settings: CHO-K1
[11] = molecular target: T1, Mu-type opioid receptor; assay: Agonist activity at human MOR expressed in CHOK1 cells assessed as […] of cAMP accumulation at 10 uM incubated for 45 mins by HTRF assay; assay type: functional, cell-based; settings: CHO-K1
[12] = Toxicity in CD1 mouse assessed as inhibition of intestinal transit by measuring percentage of distance traveled by charcoal meal at 20 mg/kg, po; assay type: organism-based; settings: in vivo
[13] = system: Mus musculus; assay: Antinociceptive activity in CD1 mouse PSNL model assessed as reduction in mechanical allodynia by measuring decrease in the pressure required to elicit withdrawal of the ipsilateral paw after von Frey filament stimulation at 1.25 mg/kg, ip BID for 11 days from day 13 to day 22; assay type: functional; settings: 264 h, time 11 day
[14] = molecular target: T3, Sigma non-opioid intracellular receptor 1; assay: Displacement of 3H](+)-pentazocine from human sigma1 receptor expressed in HEK293 cell membranes at 10 uM incubated for 120 mins by liquid scintillation counting method; settings: Cell membrane

T3 sequence (Q99720 whole entry): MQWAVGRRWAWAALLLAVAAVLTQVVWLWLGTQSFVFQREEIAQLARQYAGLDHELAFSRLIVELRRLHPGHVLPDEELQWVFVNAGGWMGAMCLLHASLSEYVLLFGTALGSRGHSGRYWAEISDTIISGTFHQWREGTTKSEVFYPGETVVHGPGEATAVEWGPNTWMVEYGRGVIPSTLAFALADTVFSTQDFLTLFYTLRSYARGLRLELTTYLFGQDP
T1 sequence (P35372 whole entry): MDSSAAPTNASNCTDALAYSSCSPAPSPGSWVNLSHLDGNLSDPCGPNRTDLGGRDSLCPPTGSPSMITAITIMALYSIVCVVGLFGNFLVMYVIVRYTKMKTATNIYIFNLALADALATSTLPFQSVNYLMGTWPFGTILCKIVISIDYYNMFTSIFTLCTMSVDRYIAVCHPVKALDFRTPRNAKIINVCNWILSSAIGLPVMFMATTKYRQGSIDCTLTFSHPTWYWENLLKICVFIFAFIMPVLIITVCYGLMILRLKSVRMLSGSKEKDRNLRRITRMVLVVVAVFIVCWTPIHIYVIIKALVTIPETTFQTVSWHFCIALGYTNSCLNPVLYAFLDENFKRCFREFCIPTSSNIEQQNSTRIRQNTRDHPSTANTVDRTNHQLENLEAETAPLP
Sequence of Voltage-gated inwardly rectifying potassium channel KCNH2 (Q12809 whole entry): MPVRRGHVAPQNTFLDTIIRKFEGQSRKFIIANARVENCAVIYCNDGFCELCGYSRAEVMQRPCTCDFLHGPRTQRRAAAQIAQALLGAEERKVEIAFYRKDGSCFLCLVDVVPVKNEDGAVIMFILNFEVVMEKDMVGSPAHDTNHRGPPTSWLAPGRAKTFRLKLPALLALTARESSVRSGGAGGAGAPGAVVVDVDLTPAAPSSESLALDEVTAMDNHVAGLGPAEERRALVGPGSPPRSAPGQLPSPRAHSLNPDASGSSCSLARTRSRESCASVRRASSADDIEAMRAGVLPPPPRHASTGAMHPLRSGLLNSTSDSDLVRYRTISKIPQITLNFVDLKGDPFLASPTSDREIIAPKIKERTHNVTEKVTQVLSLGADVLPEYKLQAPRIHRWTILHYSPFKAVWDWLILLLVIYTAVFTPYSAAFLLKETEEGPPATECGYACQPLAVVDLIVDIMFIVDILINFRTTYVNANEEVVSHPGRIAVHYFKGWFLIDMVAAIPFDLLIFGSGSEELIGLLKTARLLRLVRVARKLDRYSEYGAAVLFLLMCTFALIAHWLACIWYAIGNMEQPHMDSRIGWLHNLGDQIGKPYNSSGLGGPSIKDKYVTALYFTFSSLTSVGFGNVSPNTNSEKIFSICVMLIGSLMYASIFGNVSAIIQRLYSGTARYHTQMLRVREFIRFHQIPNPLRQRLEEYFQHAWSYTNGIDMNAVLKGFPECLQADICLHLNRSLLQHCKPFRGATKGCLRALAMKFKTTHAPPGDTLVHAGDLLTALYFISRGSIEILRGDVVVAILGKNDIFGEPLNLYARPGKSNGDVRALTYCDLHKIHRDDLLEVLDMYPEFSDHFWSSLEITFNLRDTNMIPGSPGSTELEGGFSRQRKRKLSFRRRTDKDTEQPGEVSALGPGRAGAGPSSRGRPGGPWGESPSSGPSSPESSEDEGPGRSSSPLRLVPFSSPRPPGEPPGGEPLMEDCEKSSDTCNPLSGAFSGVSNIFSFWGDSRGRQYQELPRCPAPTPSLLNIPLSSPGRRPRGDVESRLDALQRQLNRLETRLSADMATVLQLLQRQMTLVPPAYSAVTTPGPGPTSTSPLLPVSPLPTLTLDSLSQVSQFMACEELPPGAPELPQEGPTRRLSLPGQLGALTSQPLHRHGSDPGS
Sequence of hERG (KCNH2) (Q12809 whole entry): as above

SMILES | Ki [1] [nM] | inhibition [2] [%] | inhibition [3] [%] | EC50 [4] [nM] | Ki [5] [nM] | Emax [6] [%] | IC50 [7] [nM] | inhibition at 10 µM [8] [%] | inhibition [9] [%] | inhibition [10] [%] | inhibition [11] [%] | Activity [12] | inhibition in vivo at 1.25 mg/kg [13] [%] | inhibition [14] [%]
CCN1CC2(CCN(CCc3ccccn3)CC2)OC2(CC2)C1=O | > 1000 | 0 | < 50 | 1500 | 783 |  |  |  |  |  |  |  |  | 
C[C@H]1OC2(CCN(CCc3ccccc3)CC2)CN(C)C1=O | 91 | 19 |  | 319 | 277 | 83 | > 10000 | < 50 |  |  |  |  |  | 
CCN1CC2(CCN(CCc3cc(F)ccc3F)CC2)O[C@@H](C)C1=O |  | 9 |  |  |  |  | > 10000 | < 50 |  |  |  |  |  | 
CCN1CC2(CCN(CCc3c(F)cccc3F)CC2)O[C@H](C)C1=O | 21 | 10 |  | 16 | 609 | 95 |  |  |  |  |  |  |  | 
CCN1CC2(CCN(CCc3cccc(F)c3F)CC2)O[C@H](C)C1=O | 22 | 8 |  | 10 | 556 | 90 | > 10000 | < 50 |  |  |  |  |  | 
CC[C@H]1OC2(CCN(CCc3ccccc3)CC2)CN(C)C1=O | 192 | 13 |  | 505 | 139 | 90 | 6600 |  |  |  |  |  |  | 
C[C@@H]1OC2(CCN(CCc3ccccc3)CC2)CN(C)C1=O | > 1000 | 6 |  | 1780 | 165 |  |  |  | < 50 |  |  |  |  | 
O=C1N(c2cccnc2C(F)(F)F)CC2(CCN(CCc3ccccc3F)CC2)OC12CC2 |  | 57 |  |  |  |  |  | < 50 |  |  |  |  |  | 
C[C@H]1OC2(CCN(CCc3ccccc3)CC2)CN(C2CC2)C1=O | 6 | 51 |  | 7 |  | 91 | 4500 |  |  |  |  |  |  | 
CCN1CC2(CCN(CCc3ccccc3)CC2)O[C@H](C)C1=O | 26 | 14 |  | 49 | 66 | 83 | 4700 |  |  |  |  |  |  | 
CC1OC2(CCN(CCc3ccccc3)CC2)CN(CCc2ccccc2)C1=O (stereo unspecified) | 20 | 58 |  | 22 |  | 94 | 200 |  |  |  |  |  |  | 
CC1OC2(CCN(CCc3ccccc3)CC2)CN(Cc2ccccc2)C1=O (stereo unspecified) | 2 | 67 |  | 2 | 10 | 97 | 100 |  |  |  |  |  |  | 
CC1OC2(CCN(CCc3ccccc3)CC2)CN(c2ccccc2)C1=O (stereo unspecified) |  | 72 |  |  |  | 85 |  |  |  |  |  |  |  | 
CCN1CC2(CCN(CCc3ccccc3F)CC2)O[C@H](C)C1=O | 18 | 15 |  | 24 | 68 | 84 | 4000 |  |  |  |  |  |  | 
CC1OC2(CCN(CCc3ccccc3)CC2)CN(CCc2ccccc2F)C1=O (stereo unspecified) | > 1000 | 7 |  | > 1000 | 892 |  | > 10000 | < 50 | < 50 | < 50 |  |  |  | 
CCN1CC2(CCN(CCc3ccccc3)CC2)OC(C)C1=O (stereo unspecified) | 41 | 27 |  | 65 | 43 | 84 | 3100 |  |  |  |  |  |  | 
CN1CC2(CCN(CCc3ccccc3)CC2)OCC1=O | > 1000 | 36 |  | > 1000 | 282 |  |  |  | < 50 | < 50 |  |  |  | 
CN1CC2(CCN(CCc3ccccc3)CC2)OC(C)(C)C1=O | > 1000 | 37 |  | 624 | 50 |  |  |  | < 50 |  |  |  |  | 
CCN1CC2(CCN(CCc3ccc(F)cc3F)CC2)O[C@H](C)C1=O | 62 | 11 |  | 53 | 94 | 92 | 2500 |  |  |  |  |  |  | 
Cc1cc(OCCN2CCOCC2)nn1-c1ccc2ccccc2c1 |  |  | < 50 |  |  |  |  | < 50 |  |  | < 50 |  |  | 
COc1ccc2c3c1O[C@H]1C(=O)CC[C@@]4(O)[C@@H](C2)N(C)CC[C@]314 [OXYCODONE] |  |  |  |  |  |  | > 10000 | < 50 |  |  |  | Toxic | 51 | < 50
CN1CC2(CCN(CCc3ccccc3)CC2)OC(c2ccccc2)C1=O (stereo unspecified) | > 1000 | 26 |  | > 1000 | 242 |  |  |  | < 50 | < 50 |  |  |  | 
CCN1CC2(CCN(CCc3ccc(F)cc3)CC2)O[C@H](C)C1=O | 164 | 21 |  | 108 | 76 | 81 | 1500 |  |  |  |  |  |  | 
CN1CC2(CCN(CCc3ccccc3)CC2)OC2(CC2)C1=O | 221 | 41 |  | 442 | 161 | 85 | 3600 |  |  |  |  |  |  | 
CC1OC2(CCN(CCc3ccccc3)CC2)CN(C)C1=O (stereo unspecified) | 156 | 16 |  | 787 | 142 | 79 | > 10000 | < 50 |  |  |  |  |  | 
CC1OC2(CCN(CCc3ccccc3)CC2)CN(C(C)C)C1=O (stereo unspecified) | 33 | 35 |  | 21 | 30 | 100 | 3900 |  |  |  |  |  |  | 
CC(C)C1OC2(CCN(CCc3ccccc3)CC2)CN(C)C1=O (stereo unspecified) | 115 | 29 |  | 174 | 122 | 85 | 6200 |  |  |  |  |  |  | 
CCN1CC2(CCN(CCc3cccc(F)c3)CC2)O[C@H](C)C1=O | 56 | 42 |  | 56 | 64 | 83 |  |  |  |  |  |  |  | 
